Assay results: patent US9233921B2, “Potent poxvirus inhibitor” (priority 2013, dated 2016)
Like-named read-outs stand apart in the source and are kept apart here.

Assays:
vaccinia virus = assay: microbe, parasite or virus in culture; type: cell-based, Vaccinia virus (WR strain)
Cytotoxicity (CC50) = settings: African green monkey, BSC-1 cells
[1] = Orthopoxvirus vaccinia, BSC-1, read-out: IC50 (antiviral)

Compound | IC50 (vaccinia virus; [1]) [µM] | CC50 (Cytotoxicity (CC50)) [µM] | IC50 (antiviral) (vaccinia virus) | other results
COC(=O)c1[nH]c2c(C)cccc2c1Sc1ccc(Cl)cc1 [Compound 8, Methyl 3-((4-chlorophenyl)thio)-7-methyl-1H-indole-2-carboxylate] | 23 | 32 | – | –
Cc1cccc2c(Sc3ccc(Cl)c(Cl)c3)c(C(=O)O)[nH]c12 [Compound 22, 3-((3,4-Dichlorophenyl)thio)-7-methyl-1H-indole-2-carboxylic acid] | – | 150 | – | fold activity improvement over the parent 1 (vaccinia virus): 2-11 fold
Cc1ccc2c(Sc3ccc(C(F)(F)F)cc3)c(C(=O)O)[nH]c2c1 [Compound 18g, 6-Methyl-3-((4-(trifluoromethyl)phenyl)thio)-1H-indole-2-carboxylic acid] | 33 | 137 | – | –
Cc1ccc2c(Sc3cc(Cl)c(Cl)cc3Cl)c(C(=O)O)[nH]c2c1 [Compound 30, 6-Methyl-3-((2,4,5-trichlorophenyl)thio)-1H-indole-2-carboxylic acid] | 25 | 78 | – | –
Cc1cccc2[nH]c(C(=O)O)c(Sc3ccc([N+](=O)[O-])cc3)c12 [Compound 19c, 4-Methyl-3-((4-nitrophenyl)thio)-1H-indole-2-carboxylic acid] | – | – | loss of activity | –
O=C(O)c1[nH]c2ccccc2c1Sc1ccc(Cl)cc1 [Compound 1d, 3-(4-Chlorophenylthio)-1H-indole-2-carboxylic acid] | – | – | loss of activity | –
3-((3,5-Dichlorophenyl)thio)-6-methyl-1H-indole-2-carboxylate [Compound 27] | – | – | loss of activity | –
COc1ccc(Sc2c(C(=O)O)[nH]c3cccc(C)c23)cc1 [Compound 19, 3-((4-Methoxyphenyl)thio)-4-methyl-1H-indole-2-carboxylic acid] | – | – | failed to show antiviral activities | –
Cc1cccc2c(Sc3ccc(Cl)cc3)c(C(=O)O)[nH]c12 [Compound 1c, 3-((4-Chlorophenyl)thio)-7-methyl-1H-indole-2-carboxylic acid] | 46 to 86 | – | – | IC50 (vaccinia virus; read-out: IC50 (antiviral)): 74 µM
Cc1ccc2c(Sc3ccc(C(=O)O)cc3)c(C(=O)O)[nH]c2c1 [Compound 18f, 3-((4-Carboxyphenyl)thio)-6-methyl-1H-indole-2-carboxylic acid] | – | – | loss of activity | –
Cc1ccc2c(Sc3cc(Cl)cc(Cl)c3)c(C(=O)O)[nH]c2c1 [Compound 24, 3-((3,5-Dichlorophenyl)thio)-6-methyl-1H-indole-2-carboxylic acid] | 7 to 37 | 75 | – | SI (selectivity index = CC50/IC50) (vaccinia virus): 11; fold activity improvement over the parent 1 (vaccinia virus): 2-11 fold; IC50 (vaccinia virus; Orthopoxvirus vaccinia): 7 µM
Cc1ccc2c(Sc3ccc(Cl)c(Cl)c3)c(C(=O)O)[nH]c2c1 [Compound 21, 3-((3,4-Dichlorophenyl)thio)-6-methyl-1H-indole-2-carboxylic acid] | – | 76 | – | fold activity improvement over the parent 1 (vaccinia virus): 2-11 fold
O=C(O)c1[nH]c2cc(F)ccc2c1Sc1ccc(Cl)cc1 [Compound 1g, 6-Fluoro-3-((4-chlorophenyl)thio)-1H-indole-2-carboxylic acid] | 40 to 51 | – | – | IC50 (vaccinia virus; read-out: IC50 (antiviral)): 40 µM
CCc1ccc2c(Sc3ccc(Cl)cc3)c(C(=O)O)[nH]c2c1 [Compound 1h, 3-((4-Chlorophenyl)thio)-6-ethyl-1H-indole-2-carboxylic acid] | 36 | – | – | –
Cc1ccc(Sc2c(C(=O)O)[nH]c3cc(C)ccc23)cc1 [Compound 18d, 6-Methyl-3-(p-tolylthio)-1H-indole-2-carboxylic acid] | – | – | failed to show antiviral activities | –
O=C(O)c1[nH]c2ccccc2c1Sc1cc(Cl)cc(Cl)c1 [Compound 26, 3-((3,5-Dichlorophenyl)thio)-1H-indole-2-carboxylic acid] | 43 | 133 | – | fold decrease in activity compared to 24 (vaccinia virus): ~6 fold
Cc1cccc2c(Sc3cc(Cl)c(Cl)cc3Cl)c(C(=O)O)[nH]c12 [Compound 30a, 7-Methyl-3-((2,4,5-trichlorophenyl)thio)-1H-indole-2-carboxylic acid] | 21 | 93 | – | –
COc1ccc(Sc2c(C(=O)O)[nH]c3cc(C)ccc23)cc1 [Compound 18e, 3-((4-Methoxyphenyl)thio)-6-methyl-1H-indole-2-carboxylic acid] | – | – | failed to show antiviral activities | –
Cc1ccc2c(Sc3cccc(F)c3)c(C(=O)O)[nH]c2c1 [Compound 18b, 3-((3-Fluorophenyl)thio)-6-methyl-1H-indole-2-carboxylic acid] | 56 | – | – | IC50 (vaccinia virus; read-out: IC50 (antiviral)): 69 µM
Cc1ccc2c(Sc3cccc(Cl)c3)c(C(=O)O)[nH]c2c1 [Compound 18a, 3-((3-Chlorophenyl)thio)-6-methyl-1H-indole-2-carboxylic acid] | 51 | – | – | –
CCc1ccc2c(Sc3ccc(Cl)c(Cl)c3)c(C(=O)O)[nH]c2c1 [Compound 23, 3-((3,4-Dichlorophenyl)thio)-6-ethyl-1H-indole-2-carboxylic acid] | 42 | – | – | –

Compound | IC50 (vaccinia virus; [1]) [µM] | CC50 (Cytotoxicity (CC50)) [µM] | IC50 (antiviral) (vaccinia virus) | other results
Cc1cccc2[nH]c(C(=O)O)c(Sc3ccc(Cl)cc3)c12 [Compound 1a, 3-((4-Chlorophenyl)thio)-4-methyl-1H-indole-2-carboxylic acid] | 46 to 86 | – | – | IC50 (vaccinia virus; read-out: IC50 (antiviral)): 86 µM
COc1cccc2[nH]c(C(=O)O)c(Sc3ccc(Cl)cc3)c12 [Compound 1i, 3-((4-Chlorophenyl)thio)-4-methoxy-1H-indole-2-carboxylic acid] | – | – | loss of activity | –
COC(=O)c1[nH]c2cc(C)ccc2c1Sc1ccc(Cl)cc1 [Compound 6, Methyl 3-((4-chlorophenyl)thio)-6-methyl-1H-indole-2-carboxylate] | 19 | 61 | – | –
Cc1ccc(C)c2c(Sc3ccc(Cl)cc3)c(C(=O)O)[nH]c12 [Compound 1j, 3-((4-chlorophenyl)thio)-4,7-dimethyl-1H-indole-2-carboxylic acid] | 50 | 109 | – | –
CCc1ccc2c(Sc3cc(Cl)cc(Cl)c3)c(C(=O)O)[nH]c2c1 [Compound 25, 3-((3,5-Dichlorophenyl)thio)-6-ethyl-1H-indole-2-carboxylic acid] | 9 | 63 | – | –
COC(=O)c1ccc(Sc2c(C(=O)O)[nH]c3cccc(C)c23)cc1 [Compound 19b, 3-((4-(Methoxycarbonyl)phenyl)thio)-4-methyl-1H-indole-2-carboxylic acid] | – | – | failed to show antiviral activities | –
Cc1ccc(Sc2c(C(=O)O)[nH]c3cccc(C)c23)cc1 [Compound 19a, 4-Methyl-3-(p-tolylthio)-1H-indole-2-carboxylic acid] | – | – | failed to show antiviral activities | –
O=C(O)c1[nH]c2cc(Cl)ccc2c1Sc1ccc(Cl)cc1 [Compound 1e, 6-Chloro-3-((4-chlorophenyl)thio)-1H-indole-2-carboxylic acid] | 40 to 51 | 138 | – | IC50 (vaccinia virus; read-out: IC50 (antiviral)): 47 µM
Cc1ccc2c(c1)c(Sc1ccc(Cl)cc1)c(C(=O)O)n2C [Compound 2, 3-((4-Chlorophenyl)thio)-1,5-dimethyl-1H-indole-2-carboxylic acid] | 135 | – | – | –
CNC(=O)c1[nH]c2cc(C)ccc2c1Sc1cc(Cl)cc(Cl)c1 [Compound 28, 3-((3,5-Dichlorophenyl)thio)-N,6-dimethyl-1H-indole-2-carboxamide] | – | – | loss of activity | –
Cc1ccc2c(Sc3ccccc3)c(C(=O)O)[nH]c2c1 [Compound 18, 6-Methyl-3-(phenylthio)-1H-indole-2-carboxylic acid] | – | – | abolished its antiviral activity | –
O=C(O)c1[nH]c2cc(Br)ccc2c1Sc1ccc(Cl)cc1 [Compound 1f, 6-Bromo-3-((4-chlorophenyl)thio)-1H-indole-2-carboxylic acid] | 40 to 51 | 90 | – | IC50 (vaccinia virus; read-out: IC50 (antiviral)): 51 µM
Cc1cccc2[nH]c(C(=O)O)c(Sc3cc(Cl)c(Cl)cc3Cl)c12 [Compound 30b, 4-Methyl-3-((2,4,5-trichlorophenyl)thio)-1H-indole-2-carboxylic acid] | 18 | 65 | – | –
CCn1c(C(=O)O)c(Sc2ccc(Cl)cc2)c2cc(C)ccc21 [Compound 3, 3-((4-Chlorophenyl)thio)-1-ethyl-5-methyl-1H-indole-2-carboxylic acid] | 86 | – | – | fold improvement in activity over the corresponding R1 methyl analogs 2 and 4 (vaccinia virus): 1.5 fold
Cc1ccc2c(Sc3ccc(Br)cc3)c(C(=O)O)[nH]c2c1 [Compound 18c, 3-((4-Bromophenyl)thio)-6-methyl-1H-indole-2-carboxylic acid] | – | 133 | loss of activity | –
CCn1c(C(=O)OC)c(Sc2ccc(Cl)cc2)c2cc(C)ccc21 [Compound 5, Methyl 3-((4-chlorophenyl)thio)-1-ethyl-5-methyl-1H-indole-2-carboxylate] | 39 | – | – | fold improvement in activity of 5 over 3 (vaccinia virus): 2 fold; fold improvement in activity over the corresponding R1 methyl analogs 2 and 4 (vaccinia virus): 4 fold
COC(=O)c1[nH]c2cccc(C)c2c1Sc1ccc(Cl)cc1 [Compound 9, Methyl 3-((4-chlorophenyl)thio)-4-methyl-1H-indole-2-carboxylate] | 21 | – | – | –
Cc1ccc2[nH]c(C(=O)O)c(Sc3ccc(Cl)cc3)c2c1 [Compound 1b, 3-((4-Chlorophenyl)thio)-5-methyl-1H-indole-2-carboxylic acid] | 46 to 86 | 136 | – | IC50 (vaccinia virus; read-out: IC50 (antiviral)): 46 µM
Cc1ccc2c(Sc3ccc(Cl)cc3)c(C(=O)O)[nH]c2c1 [Compound 1, 3-((4-Chlorophenyl)thio)-6-methyl-1H-indole-2-carboxylic acid] | 82 | 192 | – | IC50 (vaccinia virus; Orthopoxvirus vaccinia): 82 µM
COC(=O)c1c(Sc2ccc(Cl)cc2)c2cc(C)ccc2n1C [Compound 4, Methyl 3-((4-chlorophenyl)thio)-1,5-dimethyl-1H-indole-2-carboxylate] | 163 | – | – | –
Cc1ccc2c(Sc3ccc(C(F)(F)F)cc3[N+](=O)[O-])c(C(=O)O)[nH]c2c1 [Compound 31, 6-Methyl-3-((2-nitro-4-(trifluoromethyl)phenyl)thio)-1H-indole-2-carboxylic acid] | – | – | loss of activity | –
